The values below come from ChEMBL document CHEMBL4043274, “4-Hydroxy-2-pyridones: Discovery and evaluation of a novel class of antibacterial agents targeting DNA synthesis” (Bioorg Med Chem Lett, 2017).

Data set [1] can be described thus: Volume of distribution at steady state in Sprague-Dawley rat at 10 mg/kg, iv administered as single dose. Type of data set: ADME, organism-based. The following applies: in vivo, read-out: Vdss.
For data set [2], the system named is Staphylococcus aureus. The data set is described as follows: Antibacterial activity against multidrug resistant Staphylococcus aureus by broth microdilution assay. Type of data set: functional. In general terms: In broth dilution the organism is exposed to a series of concentrations in liquid medium.
In data set [3] the test system is Escherichia coli. Put plainly: Antibacterial activity against wild-type Escherichia coli ATCC 25922 in presence of human serum albumin by CLSI M100-S17 protocol based method. It is filed as functional.
For data set [4], the system named is Escherichia coli. Put plainly: Antibacterial activity against wild-type Escherichia coli ATCC 25922 infected in iv dosed CD-1 mouse assessed as mouse survival treated for 1 hr followed by reinfection with bacteria measured at 96 hrs post infection. It is filed as functional. Particulars: ATCC 25922, iv, read-out: PD50.
Data set [5] in a line: (§1) Inhibition of Escherichia coli ATCC 25922 topoisomerase-4 ParC at 100 uM using kinetoplast DNA as substrate after 60 mins relative to control.
For data set [6], the system named is Escherichia coli. The data set is described as follows: Antibacterial activity against quinolone resistant Escherichia coli SKM18 by CLSI M100-S17 protocol based method. It is filed as functional.
Data set [7] has as its system Escherichia coli. The data set is described as follows: Antibacterial activity against wild-type Escherichia coli ATCC 25922 by CLSI M100-S17 protocol based method. It is filed as functional.
Data set [8] in a line: Protein binding in mouse plasma. It is filed as ADME, cell-free. The following applies: read-out: PPB (converted).
For data set [9], the system named is Rattus norvegicus. Put plainly: Dose normalized AUC (0 to 24 hrs) in Sprague-Dawley rat at 10 mg/kg, iv administered as single dose. Type of data set: ADME, organism-based. Particulars: in vivo.
The subject of a further data set is Klebsiella pneumoniae. Put plainly: Antibacterial activity against Klebsiella pneumoniae ATCC 35657 by CLSI M100-S17 protocol based method. It is filed as functional.
Data set [10] can be described thus: Terminal half life in Sprague-Dawley rat at 10 mg/kg, iv administered as single dose. Type of data set: ADME, organism-based. The following applies: in vivo, read-out: beta t1/2 (converted).
Data set [11] is described as follows: Oral bioavailability in Sprague-Dawley rat. It is filed as ADME, organism-based. The following applies: in vivo.
Data set [12] relates to Escherichia coli. The data set is described as follows: Antibacterial activity against Escherichia coli BAS849 by CLSI M100-S17 protocol based method. It is filed as functional.
Another data set relates to Acinetobacter baumannii. Put plainly: Antibacterial activity against Acinetobacter baumannii ATCC BAA-747 by CLSI M100-S17 protocol based method. It is filed as functional.
In data set [13] the test system is Escherichia coli. The data set is described as follows: Antibacterial activity against clinical isolates of Escherichia coli by broth microdilution assay. It is filed as functional.
The test system of data set [14] is Escherichia coli. Put plainly: Ratio of MIC in presence to absence of HSA for wild-type Escherichia coli ATCC 25922. Type of data set: functional.
The nature of data set [15]: Inhibition of DNA gyrase-A in Escherichia coli ATCC 25922 using relaxed pBR322 DNA as substrate after 30 mins by ethidium bromide staining based agarose gel electrophoresis method.
For data set [16], the system named is Staphylococcus aureus. Put plainly: Antibacterial activity against wild-type Staphylococcus aureus ATCC 29213 by CLSI M100-S17 protocol based method. Type of data set: functional.
For data set [17], the system named is Escherichia coli ATCC 25922. Described as §1.
Data set [18] deals with Staphylococcus aureus. Put plainly: Inhibition of DNA synthesis in wild-type Staphylococcus aureus ATCC 29213 at MIC. It is filed as functional.
Data set [19] concerns Rattus norvegicus. Put plainly: Dose normalized AUC (0 to 24 hrs) in Sprague-Dawley rat at 5 mg/kg, iv administered as single dose. Particulars: in vivo. It is filed as ADME, organism-based.
Data set [20] in a line: Volume of distribution at steady state in Sprague-Dawley rat at 5 mg/kg, iv administered as single dose. Type of data set: ADME, organism-based. The following applies: in vivo, read-out: Vdss.
A short description of data set [21]: Terminal half life in Sprague-Dawley rat at 5 mg/kg, iv administered as single dose. Particulars: in vivo, read-out: beta t1/2 (converted). It is filed as ADME, organism-based.

Molecules are shown by their SMILES. In brackets after ≈: the same amount, converted by molar mass. Activity calls are given as the source filed them. The rule behind the calls is not given here.

The term MIC denotes the lowest concentration that inhibits growth of the organism. For orientation: MIC50 means the lowest concentration that inhibits either 50% of growth or 50% of the strains tested, depending on the study. A high value points to lower susceptibility. One may read the MIC90 as an inhibitory concentration at the 90% level, which refers to growth in some studies and to a panel of isolates in others. A high value points to lower susceptibility. A word on the IC50: it is the concentration that gives 50% inhibition. As usually defined, the bioavailability is dose-corrected exposure relative to a reference, in per cent. By inhibition is commonly meant how much of the control response was suppressed.

On to `CCc1c(-c2ccc(N3CC4CCCNC4C3)cc2)[nH]c(=O)c(C(=O)O)c1O` (centres undefined), for which the Vd in [1] came out at 2.9 L/kg. The MIC is 0.125 to 16 µg/mL (≈ 0.326 to 41.7 µM) in the data set with Staphylococcus aureus [2]; 1.6 µg/mL with Escherichia coli [3]; 3.1 µg/mL (≈ 8.08 µM) with Escherichia coli [6]; 0.78 µg/mL (≈ 2.03 µM) in the data set on Escherichia coli [7]; 0.8 µg/mL (≈ 2.09 µM) in the data set with Klebsiella pneumoniae; 0.19 µg/mL (≈ 0.496 µM) against Escherichia coli [12]. Also, the figures for the MIC with Acinetobacter baumannii and in the data set on Escherichia coli [13] were 1.6 µg/mL (≈ 4.17 µM) and 0.125 to 2 µg/mL (≈ 0.326 to 5.22 µM), respectively. Also, the MIC50 against Staphylococcus aureus [2] and against Escherichia coli [13] was 0.5 µg/mL (≈ 1.3 µM) throughout. In addition, the MIC90 against Staphylococcus aureus [2] came out at 8 µg/mL (≈ 20.9 µM); against Escherichia coli [13], 2 µg/mL (≈ 5.22 µM). In the data set on Escherichia coli [4], the ED50 was greater than 20 mg/kg. In data set [5], it took 15.7 µM to reach half-maximal inhibition (IC50). The fraction unbound in data set [8] was 0.27. In addition, in the data set on Rattus norvegicus [9], the AUC/dose came to 13.9 µg·h/mL. In addition, the half-life in data set [10] was 3.9 h. Moreover, the bioavailability in [11] amounted to 8%. Besides, the Ratio with Escherichia coli [14] is listed as less than 4.
In data set [15], `CCc1c(-c2ccc(N(C)C)cc2)[nH]c(=O)c(C(=O)O)c1O` had an IC50 of 11 µM. For the same compound, the MIC was 3.1 µg/mL (≈ 10.3 µM) against Staphylococcus aureus [16]; greater than 25 µg/mL in the data set on Escherichia coli [3]; 15.6 µg/mL (≈ 51.6 µM) in the data set on Escherichia coli [6]; 0.78 to 0.8 µg/mL (≈ 2.58 to 2.65 µM) in the data set on Escherichia coli [7]; 3.9 µg/mL (≈ 12.9 µM) in the data set with Klebsiella pneumoniae; 0.03 µg/mL (≈ 0.0992 µM) against Escherichia coli [12]. This compound returned an MIC against Acinetobacter baumannii of 6.3 µg/mL (≈ 20.8 µM). The compound also came in with an inhibition in data set [17] of 30%. Moreover, in the data set with Staphylococcus aureus [18], the inhibition entry was “Active”.
Take `CCc1c(-c2ccc(N3C[C@@H]4[C@@H](N)[C@@H]4C3)cc2)[nH]c(=O)c(C(=O)O)c1O`: the IC50 in data set [15] came to 0.77 µM; in [5], 2.4 µM. Further, the MIC was 0.5 to 8 µg/mL (≈ 1.41 to 22.5 µM) against Staphylococcus aureus [2]; 0.78 µg/mL with Escherichia coli [3]; 12.5 µg/mL (≈ 35.2 µM) against Escherichia coli [6]; 0.19 µg/mL (≈ 0.535 µM) against Escherichia coli [7]; 0.39 µg/mL (≈ 1.1 µM) against Klebsiella pneumoniae; 0.049 µg/mL (≈ 0.138 µM) against Escherichia coli [12]. For the same compound, the lowest concentration to inhibit growth with Acinetobacter baumannii (MIC) was 0.78 µg/mL (≈ 2.19 µM). Moreover, the MIC50 is 1 µg/mL (≈ 2.81 µM) in the data set with Staphylococcus aureus [2] and 0.25 µg/mL (≈ 0.703 µM) in the data set with Escherichia coli [13]. Besides, the MIC90 in the data set with Staphylococcus aureus [2] and in the data set with Escherichia coli [13] was 8 µg/mL (≈ 22.5 µM) each time. Moreover, in the data set on Escherichia coli [4], the ED50 was 8 mg/kg. Further, the fraction unbound in data set [8] was 0.12. For the same compound, in the data set with Rattus norvegicus [19], the AUC/dose is 30.7 µg·h/mL. Moreover, the Vd in [20] was 0.54 L/kg. The compound further yielded a bioavailability in data set [11] of 17%. The half-life in data set [21] is 2.9 h.
